In patent US20180298024A1, “CORTISTATIN ANALOGS AND USES THEREOF” (President and Fellows of Harvard College, priority 2015, published 2018):
“And” between values parts separate entries of the source, which are not always exact repeats. Equal values may be shown once.

Legend:
MOLM-14 = assay: Half-maximal growth inhibition (GI50), MOLM-14; format: cell-based; conditions: Homo sapiens, 240 h, AML, M5, MLL-AF9, read-out: GI50 (nM), day 10
Procedure: (§1) Compounds A, B, C, D, and F were tested against various cell lines to probe their broad utility against cancer. Cortistatin A (CA) was also tested against the cell lines in a head to head fashion.

hERG channel (IKr) = target: T1, hERG channel (IKr) (Homo sapiens, UniProt Q12809); assay: hERG (IKr) current, PatchXpress 7000A planar voltage clamp; format: cell-based; conditions: human, CHO or HEK293 cells expressing the hERG channel; PatchXpress functional voltage clamp
T1 construct: expressed in transfected cells; host or cells: CHO or HEK293 cells
Procedure: (§2) The objective of this study was to evaluate the in vitro effects of Compound F on three cardiac ion channel currents: IKr, the rapidly activating, delayed rectifier potassium current through hERG channel encoded by human ether-à-go-go-related gene; IKs, the slowly activating, delayed rectifier cardiac potassium channel current encoded by hKCNQ1/hKCNE1; and INa, the human cardiac Na+ channel current encoded by hNav1.5 in CHO or HEK293 cells (Table 7). This functional assay was conducted using higher throughput planar voltage-clamp technology PatchXpress 7000A.
(§3) Signal amplitudes were quantified at steady state during control (vehicle) and in the presence of increasing concentrations of the test compound. Concentration-dependent changes of signal in response to compound were expressed as percent block relative to control (pre-drug/trigger) and are reported as the mean±SEM (standard error) of the indicated number (N) of tested cells/wells. IC50 values were determined where applicable by fitting the averaged concentration-response data (mean±SEM) with a Hill equation.

hKCNQ1/hKCNE1 (IKs) = target: T2, hKCNQ1/hKCNE1 (IKs) (Homo sapiens, UniProt P51787); assay: IKs current, PatchXpress 7000A planar voltage clamp; format: cell-based
T2 construct: expressed in transfected cells; host or cells: CHO or HEK293 cells
Procedure: as §2, §3

[1] = Pharmacokinetic profile in mice (plasma, LC-MS/MS); conditions: male, CD-1, mouse, plasma, po, 1 mg/kg
Procedure: Formulation correction for salt content was not required for this study. Materials were vortexed and sonicated at room temperature following addition of vehicle. The solutions were maintained at ambient temperature stirring in the dark for at least 30 minutes prior to dose administration. The formulations were then vortexed and sonicated briefly to help ensure solubility.
Mice were selected from the Testing Facility's rodent colony. The animals were enrolled in the study based on acceptable health as determined by Testing Facility personnel on the day of test article administration. Animals were held in environmental acclimation for at least 48 hours (±6 hours) prior to dosing. Animals were maintained at temperatures between 16-26° C. (62-78° F.) with the humidity range between 30-70%. Animals in all groups were fasted overnight and food was returned 4 hours following dosing. Water was provided ad libitum throughout the study.
Whole blood samples for plasma were either collected from each animal by either direct vein puncture of the submandibular vein (survival blood collection) or by cardiac puncture following euthanasia with CO2 (terminal blood collection). […] Following collection, whole blood was placed into a tube containing K2EDTA and immediately placed on wet ice until processed for plasma. Whole blood samples were centrifuged at 2200×g for 10 minutes in a refrigerated centrifuge (5±3° C.) to isolate plasma. The samples were transferred to individual polypropylene containers and immediately placed on dry ice before storage at −70±10° C. until analysis. Plasma collected from undosed spare animals was pooled and analyzed as well.
Once collected the mouse plasma studies were quantitated using LCMS/MS spectroscopy to determine the concentration of compound. […] Eight calibration standards containing the analyte and internal standard imipramine were prepared and analyzed at the beginning and at the end of the sequence. A calibration curve was generated and sample concentrations calculated using the Quantitation software MassHunter.

SKNO-1 = assay: Half-maximal growth inhibition (GI50), SKNO-1; format: cell-based; conditions: Homo sapiens, 240 h, AML, M2, RUNX1-RUNX1T1, read-out: GI50 (nM), day 10
Procedure: as §1

hERG = hERG (Homo sapiens, UniProt Q12809); assay: hERG (IKr) current, PatchXpress 7000A planar voltage clamp; format: cell-based; parameters: expressed in transfected cells; host or cells: CHO or HEK293 cells
Procedure: as §2, §3

off-targets (Panlabs) = assay: Panlab off-target assay panel; format: binding; conditions: 10 μM
Procedure: (§4) Compounds A, B, C, and D were tested in Panlab assays to evaluate potential off-target activity using standard assay kits. Methods employed in these studies have been adapted from the scientific literature to maximize reliability and reproducibility. Reference standards were run as an integral part of each assay to ensure the validity of the results obtained.
(§5) IC50 values were determined by a non-linear, least squares regression analysis using MathIQ™ (ID Business Solutions Ltd., UK). Where inhibition constants (Ki) are presented, the Ki values were calculated using the equation of Cheng and Prusoff (Cheng, Y., Prusoff, W. H., Biochem. Pharmacol. 22:3099-3108, 1973) using the observed IC50 of the tested compound, the concentration of radioligand employed in the assay, and the historical values for the KD of the ligand (obtained experimentally at Eurofins Panlabs, Inc.). Where presented, the Hill coefficient (nH), defining the slope of the competitive binding curve, was calculated using MathIQ™.

[2] = test system: Human AML cell line MV4;11; assay: MV4;11 disseminated leukemia model (bioluminescence); format: in vivo, NSG mice
Procedure: The in vivo anti-leukemic activity of Compounds A, B, C, D, and F was tested at the indicated doses and treatment schedules. The doses were chosen based on the compounds tolerability profile (i.e. CA was dosed at 0.16 mg/kg because higher doses caused weight loss or other tolerability issues outlined in Example 6). Human AML cell line MV4;11 expressing mCherry and luciferase were injected into NSG mice. Upon measurement of leukemia cell engraftment, treatment was initiated. Body weight and bioluminescence were measured. It has previously been shown (Shair, Nature 2015) that bioluminescence corresponds to leukemia burden. […] Moreover there was no appreciable advantage between IV or PO dosing observed.

[3] = Tolerability study of Compound F (body weight); format: in vivo, mice
Procedure: Twenty seven mice were used for the tolerability study of Compound F. Mice were randomly assigned to various treatment groups with n=3 mice/group. In the low dose group of 0.3 mg/kg Compound F administered IP, mice were re-challenged after 8 days of drug holiday with a higher dose of 20 mg/kg Compound F, IP. All mice were treated for 7 days unless as indicated below.
Mice were monitored clinically for signs of morbidity and for body weights daily. Mice showing signs of morbidity were euthanized as per study guidelines.

hNav1.5 (INa) = target: T3, hNav1.5 (INa) (Homo sapiens, UniProt Q14524); assay: INa current, PatchXpress 7000A planar voltage clamp; format: cell-based
T3 construct: expressed in transfected cells; host or cells: CHO or HEK293 cells
Procedure: as §2, §3

MV4; 11 = assay: Half-maximal growth inhibition (GI50), MV4; 11; format: cell-based; conditions: Homo sapiens, 240 h, AML, M5, MLL-AF4, read-out: GI50 (nM), day 10
Procedure: as §1

[4] = TurboSol solubility evaluation in physiological saline; format: physicochemical; conditions: HB-PS+0.3% DMSO
[5] = target: hERG (human ether-à-go-go-related gene) potassium channel (Homo sapiens, UniProt Q12809); assay: in vitro
Procedure: (§6) The in vitro effects of compounds A, B, C, D, E, and F on the hERG (human ether-à-go-go-related gene) potassium channel current (a surrogate for IKr, the rapidly activating, delayed rectifier cardiac potassium current) expressed in mammalian cells were evaluated at room temperature using the QPatch HT (Sophion Bioscience A/S, Denmark), an automatic parallel patch clamp system. The test articles were evaluated at 1 μM, 3 μM, […] and 30 μM. Each test article concentration was tested in at least three cells. The duration of exposure to each test article concentration was a minimum of 3 minutes.

hERG potassium channel = hERG potassium channel (Homo sapiens, UniProt Q12809); assay: in vitro; conditions: human
Procedure: as §6

Adenosine Transporter = target: T4, Adenosine Transporter (Cavia porcellus, UniProt H0V4R7); assay: Panlab assay, Adenosine Transporter; format: binding; conditions: reference standard
T4 sequence (H0V4R7 1-461): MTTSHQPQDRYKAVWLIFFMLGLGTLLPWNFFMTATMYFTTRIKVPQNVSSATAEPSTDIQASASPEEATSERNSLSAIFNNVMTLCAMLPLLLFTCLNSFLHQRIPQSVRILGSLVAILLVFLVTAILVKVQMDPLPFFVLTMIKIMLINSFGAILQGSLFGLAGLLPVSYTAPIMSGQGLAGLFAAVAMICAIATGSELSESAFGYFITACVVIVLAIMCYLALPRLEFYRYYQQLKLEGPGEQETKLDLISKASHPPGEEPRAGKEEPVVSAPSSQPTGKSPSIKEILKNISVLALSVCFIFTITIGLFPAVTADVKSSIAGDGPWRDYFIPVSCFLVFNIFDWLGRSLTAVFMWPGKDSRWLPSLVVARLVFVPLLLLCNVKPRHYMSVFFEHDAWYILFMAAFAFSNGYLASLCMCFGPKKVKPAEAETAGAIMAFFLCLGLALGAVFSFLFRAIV
Procedure: as §4, §5

[6] = Individual Data Points (% Inhibition), hERG

T3 sequence (Q14524 whole entry): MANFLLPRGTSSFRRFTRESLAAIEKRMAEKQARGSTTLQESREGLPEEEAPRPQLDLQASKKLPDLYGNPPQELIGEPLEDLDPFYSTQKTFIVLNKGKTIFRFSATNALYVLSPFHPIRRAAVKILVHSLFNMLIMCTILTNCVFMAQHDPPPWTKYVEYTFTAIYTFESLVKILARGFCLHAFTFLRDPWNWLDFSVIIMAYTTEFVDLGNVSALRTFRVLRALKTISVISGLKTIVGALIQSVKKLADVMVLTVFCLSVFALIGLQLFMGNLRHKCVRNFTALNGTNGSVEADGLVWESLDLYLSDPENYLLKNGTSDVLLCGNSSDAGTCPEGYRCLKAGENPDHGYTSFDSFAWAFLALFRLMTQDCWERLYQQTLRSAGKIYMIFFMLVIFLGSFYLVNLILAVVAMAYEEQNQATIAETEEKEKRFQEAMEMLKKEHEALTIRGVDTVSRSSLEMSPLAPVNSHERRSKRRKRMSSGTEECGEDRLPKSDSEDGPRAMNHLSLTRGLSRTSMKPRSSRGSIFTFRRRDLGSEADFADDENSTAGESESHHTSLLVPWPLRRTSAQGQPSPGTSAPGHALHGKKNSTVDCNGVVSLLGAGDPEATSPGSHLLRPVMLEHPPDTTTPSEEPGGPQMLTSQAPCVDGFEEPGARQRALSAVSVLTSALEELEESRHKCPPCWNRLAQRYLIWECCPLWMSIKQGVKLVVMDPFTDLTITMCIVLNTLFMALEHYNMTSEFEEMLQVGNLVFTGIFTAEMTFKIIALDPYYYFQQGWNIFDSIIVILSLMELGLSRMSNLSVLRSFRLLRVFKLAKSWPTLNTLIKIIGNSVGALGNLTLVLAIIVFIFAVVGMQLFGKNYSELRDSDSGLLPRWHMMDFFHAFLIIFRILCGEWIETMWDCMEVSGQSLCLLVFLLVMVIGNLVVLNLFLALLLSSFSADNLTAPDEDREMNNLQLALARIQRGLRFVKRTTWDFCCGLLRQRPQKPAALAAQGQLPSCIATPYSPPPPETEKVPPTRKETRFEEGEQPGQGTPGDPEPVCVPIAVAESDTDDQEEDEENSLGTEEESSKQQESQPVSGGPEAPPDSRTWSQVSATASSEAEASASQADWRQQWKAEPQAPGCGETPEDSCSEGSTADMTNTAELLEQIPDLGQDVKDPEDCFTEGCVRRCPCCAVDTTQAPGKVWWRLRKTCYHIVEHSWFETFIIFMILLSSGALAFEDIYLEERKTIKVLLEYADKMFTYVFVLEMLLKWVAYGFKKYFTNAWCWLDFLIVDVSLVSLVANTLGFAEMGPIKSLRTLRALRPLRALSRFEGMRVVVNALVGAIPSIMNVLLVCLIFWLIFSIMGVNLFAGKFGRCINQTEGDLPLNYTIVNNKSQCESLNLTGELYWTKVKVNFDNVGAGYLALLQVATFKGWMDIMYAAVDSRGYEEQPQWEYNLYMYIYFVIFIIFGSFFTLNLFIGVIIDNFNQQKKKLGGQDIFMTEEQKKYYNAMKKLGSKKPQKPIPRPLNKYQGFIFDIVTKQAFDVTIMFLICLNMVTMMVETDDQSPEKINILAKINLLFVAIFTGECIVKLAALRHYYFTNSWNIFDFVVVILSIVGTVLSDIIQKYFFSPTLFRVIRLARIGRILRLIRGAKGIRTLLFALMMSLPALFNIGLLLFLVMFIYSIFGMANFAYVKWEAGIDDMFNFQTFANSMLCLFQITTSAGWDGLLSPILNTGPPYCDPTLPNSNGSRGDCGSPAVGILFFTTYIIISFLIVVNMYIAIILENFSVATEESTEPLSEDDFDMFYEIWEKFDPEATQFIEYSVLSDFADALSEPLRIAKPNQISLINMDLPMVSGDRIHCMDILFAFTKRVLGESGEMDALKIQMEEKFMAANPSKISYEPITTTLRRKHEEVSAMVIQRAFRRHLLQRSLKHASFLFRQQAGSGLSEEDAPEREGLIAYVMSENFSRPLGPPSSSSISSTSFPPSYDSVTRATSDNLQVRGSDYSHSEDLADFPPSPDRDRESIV
Chain of hERG (Q12809 whole entry): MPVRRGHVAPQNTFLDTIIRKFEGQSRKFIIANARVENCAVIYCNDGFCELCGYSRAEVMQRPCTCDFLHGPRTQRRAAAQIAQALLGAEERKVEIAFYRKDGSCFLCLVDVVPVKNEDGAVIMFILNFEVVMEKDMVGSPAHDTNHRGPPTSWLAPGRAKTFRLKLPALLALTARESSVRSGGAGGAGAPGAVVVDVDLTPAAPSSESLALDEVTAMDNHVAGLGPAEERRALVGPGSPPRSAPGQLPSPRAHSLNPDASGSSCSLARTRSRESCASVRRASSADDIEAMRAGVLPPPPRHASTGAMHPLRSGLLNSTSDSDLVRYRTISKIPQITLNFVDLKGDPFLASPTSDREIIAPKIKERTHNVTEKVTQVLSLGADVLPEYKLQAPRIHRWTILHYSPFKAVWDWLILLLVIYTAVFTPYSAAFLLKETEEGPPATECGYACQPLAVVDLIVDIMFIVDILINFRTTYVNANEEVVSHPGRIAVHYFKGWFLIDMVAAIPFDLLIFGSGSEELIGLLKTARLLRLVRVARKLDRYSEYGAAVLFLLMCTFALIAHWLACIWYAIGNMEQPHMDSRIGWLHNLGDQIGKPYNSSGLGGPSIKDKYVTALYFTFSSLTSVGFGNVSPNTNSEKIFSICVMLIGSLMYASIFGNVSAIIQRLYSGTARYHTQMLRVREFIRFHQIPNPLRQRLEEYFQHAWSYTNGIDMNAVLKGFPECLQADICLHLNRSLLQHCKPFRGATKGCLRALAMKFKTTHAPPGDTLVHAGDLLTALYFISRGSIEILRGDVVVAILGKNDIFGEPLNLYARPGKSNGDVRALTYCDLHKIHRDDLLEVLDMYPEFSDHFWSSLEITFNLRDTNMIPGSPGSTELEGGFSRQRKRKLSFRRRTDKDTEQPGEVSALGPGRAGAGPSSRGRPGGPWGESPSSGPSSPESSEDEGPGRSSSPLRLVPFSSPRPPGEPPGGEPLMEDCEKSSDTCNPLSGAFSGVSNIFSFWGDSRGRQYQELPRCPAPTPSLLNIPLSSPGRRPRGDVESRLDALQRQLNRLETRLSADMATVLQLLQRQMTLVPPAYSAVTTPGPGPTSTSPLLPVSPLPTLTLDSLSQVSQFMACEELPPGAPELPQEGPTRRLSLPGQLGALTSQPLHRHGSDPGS
Chain of hERG potassium channel (Q12809 whole entry): as above

In the case of C[C@]12CC=C3C=C4CC[C@@H](N5CCC5)C[C@]45CCC3(O5)[C@@H]1CC[C@@H]2c1ccc2ccncc2c1 [Compound F], the GI50 (MOLM-14) is reported as 3 nM, the IC20 (hERG channel (IKr)) is reported as 110 nM and the IC50 (hKCNQ1/hKCNE1 (IKs)) is reported as 17000 nM. The “IKS % Block Mean ± SEM (n)” value (hKCNQ1/hKCNE1 (IKs); 10 μM) was 34 ± 7 (5) %, the “IKS % Block Mean ± SEM (n)” value (hKCNQ1/hKCNE1 (IKs); 30 μM) was 68±15% and 68 ± 15 (4) % and the AUC(0-inf) [1] was 524 ng·h/mL. For the same molecule, the GI50 (SKNO-1) was < 1 nM, the “hERG % Block Mean ± SEM (n)” value (hERG; 0.12 μM) was 21 ± 2 (3) % and the “hERG % Block Mean ± SEM (n)” value (hERG; 0.37 μM) was 51 ± 1 (3) %. The “hERG % Block Mean ± SEM (n)” value (hERG; 1.1 μM) was 77 ± 0 (3) %, the “hERG % Block Mean ± SEM (n)” value (hERG; 3.3 μM) was 94 ± 0 (4) % and the “hERG % Block Mean ± SEM (n)” value (hERG; 10 μM) was 97 ± 0 (4) %. The “hERG % Block Mean ± SEM (n)” value (hERG; 30 μM) was 102 ± 1 (4) %, the IC50 (hERG; PatchXpress functional voltage clamp) was 370 nM and the “number of targets with ≥75% inhibition” value (off-targets (Panlabs); Safety Panel = 28 binding assays (Eurofins Panlabs)) was 12. For the same molecule, the “number of targets with greater than 50% inhibition” value (off-targets (Panlabs); over 100 Panlab assays) was “over 20”, the “number of targets with inhibition of greater than or equal to 75%” value (off-targets (Panlabs); over 100 Panlab assays) was 12 and the “Fold increase in leukemia burden 15 days after 1st dose” value ([2]; 1 mpk PO QDx15, NSG mice) was 12.3 fold. The “Efficacy Rank Day 15” value ([2]; each compound at its own dose/schedule, data from 3 separate studies) was 6, the body weight loss ([3]; IP 20 mg/kg, 2 of 3 mice) was > 15% and the “average body weight loss” value ([3]; oral 1 mg/kg) was ~10%. The body weight loss ([3]; oral 3 mg/kg, 3 of 3 mice, requiring drug holiday) was > 15%, the body weight loss ([3]; oral 10 mg/kg, not tolerated) was > 20% and the “INa at 3 Hz % Block Mean ± SEM (n)” value (hNav1.5 (INa); 3.3 μM, pulsing rate 3 Hz) was 30 ± 5 (4) %. For the same molecule, the “INa at 3 Hz % Block Mean ± SEM (n)” value (hNav1.5 (INa); 10 μM, pulsing rate 3 Hz) was 60 ± 3 (4) %, the inhibition at 30 µM (hNav1.5 (INa); 30 μM, pulsing rate 0.2 Hz) was 86 ± 2% and the “INa at 3 Hz % Block Mean ± SEM (n)” value (hNav1.5 (INa); 30 μM, pulsing rate 3 Hz) was 98±1% and 98 ± 1 (4) %. For the same molecule, the IC50 (hNav1.5 (INa); pulsing rate 0.2 Hz) was 14000 nM, the IC50 (hNav1.5 (INa); pulsing rate 3 Hz) was 6500 nM and the GI50 (MV4; 11) was 1 nM.

With C[C@]12CC=C3C=C4CC[C@@H](N5CCCC5)C[C@]45CCC3(O5)[C@@H]1CC[C@@H]2c1ccc2ccncc2c1 [Compound E] the “Average LSU (×1000)” value ([4]; 1 μM) was 3.7 LSU (×1000), the “Average LSU (×1000)” value ([4]; 3 μM) was 4.7 LSU (×1000) and the “Average LSU (×1000)” value ([4]; 10 μM) was 6.4 LSU (×1000). For the same molecule, the “Average LSU (×1000)” value ([4]; 30 μM) was 8.7 LSU (×1000), the “solubility in the TurboSol assay” value [4] was “slightly insoluble at 30 μM” and the “activity in the hERG assay” value [5] was “sub-micromolar activity”. The IC50 ([5]; hERG IC50, QPatch HT, room temperature) was 562 nM, the inhibition at 1 µM (hERG potassium channel; [6]) was 65.6% and the inhibition at 3 µM (hERG potassium channel; [6]) was 83.4%. For the same molecule, the inhibition at 10 µM (hERG potassium channel; [6]) was 93.8%, the inhibition at 30 µM (hERG potassium channel; [6]) was 97.7% and the inhibition at 1 µM (hERG potassium channel; Mean % hERG Inhibition) was 67.2%. For the same molecule, the inhibition at 3 µM (hERG potassium channel; Mean % hERG Inhibition) was 79.2%, the inhibition at 10 µM (hERG potassium channel; Mean % hERG Inhibition) was 93% and the inhibition at 30 µM (hERG potassium channel; Mean % hERG Inhibition) was 98.8%.

O=[N+]([O-])c1ccc(CSc2ncnc3c2ncn3C2OC(CO)C(O)C2O)cc1 (centres unmarked) [nitrobenzylthioinosine, Nitrobenzylthioinosine, reference compound] showed an IC50 (Adenosine Transporter) of 0.35 nM and a Ki (Adenosine Transporter; Cheng and Prusoff) of 0.12 nM.
